Experimental data: article PMC4365380, “Synthesis and Biological Activity of Arylspiroborate Salts Derived from Caffeic Acid Phenethyl Ester” (International Journal of Medicinal Chemistry, 2015)

Molecular target: T1, 5-lipoxygenase (5-LO) (Homo sapiens, UniProt P09917)
T1 construct: gene ALOX5
T1 sequence (P09917 1-674): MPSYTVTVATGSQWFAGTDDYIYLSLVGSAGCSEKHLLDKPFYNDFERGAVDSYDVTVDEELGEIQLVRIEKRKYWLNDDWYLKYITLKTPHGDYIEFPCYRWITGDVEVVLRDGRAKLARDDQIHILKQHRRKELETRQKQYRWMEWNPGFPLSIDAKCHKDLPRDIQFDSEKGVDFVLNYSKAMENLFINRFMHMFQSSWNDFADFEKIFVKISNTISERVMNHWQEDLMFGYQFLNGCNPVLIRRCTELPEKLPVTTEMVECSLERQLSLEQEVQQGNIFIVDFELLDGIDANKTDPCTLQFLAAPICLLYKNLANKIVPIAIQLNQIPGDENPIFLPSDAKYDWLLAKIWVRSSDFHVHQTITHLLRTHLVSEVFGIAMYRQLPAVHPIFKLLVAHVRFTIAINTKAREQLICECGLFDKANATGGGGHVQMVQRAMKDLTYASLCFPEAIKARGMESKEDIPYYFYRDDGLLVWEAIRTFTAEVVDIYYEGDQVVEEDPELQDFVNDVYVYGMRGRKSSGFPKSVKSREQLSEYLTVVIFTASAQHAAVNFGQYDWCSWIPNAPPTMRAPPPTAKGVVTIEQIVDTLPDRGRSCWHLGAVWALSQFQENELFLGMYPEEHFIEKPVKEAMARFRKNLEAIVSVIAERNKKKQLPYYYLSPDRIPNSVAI
T1 sequence (P20292 1-161 partner): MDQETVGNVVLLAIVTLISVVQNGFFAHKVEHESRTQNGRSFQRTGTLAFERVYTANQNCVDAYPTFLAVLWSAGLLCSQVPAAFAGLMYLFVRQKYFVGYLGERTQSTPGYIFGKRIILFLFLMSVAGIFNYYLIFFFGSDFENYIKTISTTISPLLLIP
Test: 5-LO product biosynthesis (RP-HPLC) in thapsigargin-stimulated human PMNL; also HEK293 cells expressing 5-LO and FLAP
Assay type: cell-based
Conditions: read-out: IC50 (μM) [SEM]^*

Question: With `O=C(/C=C/c1ccc(O)c(O)c1)OCCc1ccccc1` [compound 3, CAPE] as the compound, how does the IC50 read?
Answer: Its IC50 is 1.11 µM.
